Source: ChEMBL document CHEMBL1130811, “An enantioselective fluorimetric assay for alcohol dehydrogenases using albumin-catalyzed beta-elimination of umbelliferone” (Bioorg Med Chem Lett, 1998)

What was measured:
[1] = Specificity constant of the BSA-catalyzed deprotonation of compound at pH 9; format: ADME, Bos taurus; conditions: cattle
[2] = target: Alcohol dehydrogenase (Equus caballus) (UniProt P00327+P00328); test: Compound was tested for enantioselectivity of alcohol dehydrogenase in horse liver at a concentration of 10 ug/mL.
[3] = test system: alcohol dehydrogenase (Thermoanaerobacter brockii); test: Compound was tested for enantioselectivity of alcohol dehydrogenase in thermoanaerobium brockii at a concentration of 5 ug/mL.
[4] = test system: alcohol dehydrogenase (Saccharomyces cerevisiae); test: Compound was tested for enantioselectivity of alcohol dehydrogenase in yeast at a concentration of 100 ug/mL.
[5] = test system: alcohol dehydrogenase (Lactobacillus kefiri); test: Compound was tested for enantioselectivity of alcohol dehydrogenase in lactobacillus kefir at a concentration of 50 ug/mL.
[6] = Specificity constant of the bovine serum albumin catalyzed reaction expressed as (kcat/KM)/kuncat; format: ADME, Bos taurus; conditions: cattle
[7] = Half life in presence of 2 mg/mL BSA at pH 8.8; format: ADME, Bos taurus; conditions: cattle, bovine serum albumin solution
[8] = Rate constant of the bovine serum albumin catalyzed reaction of the compound; format: ADME, Bos taurus; conditions: cattle
[9] = Michaelis-Menten kinetics of the bovine serum albumin catalyzed reaction of the compound; format: ADME, Bos taurus; conditions: cattle

Selectivity [2] [µM/s] | Selectivity [3] [µM/s] | Selectivity [4] [µM/s] | Selectivity [5] [µM/s] | (kcat/KM)/kuncat [6] [M⁻¹] | half-life [7] [min] | k cat [8] [s⁻¹] | k cat/Kuncat [8] | Km [9] [µM] | Compound | (kcat/KM)/kuncat [1] [M⁻¹]
– | – | – | – | – | – | – | – | – | c1cnoc1 [ISOXAZOLE] | 3600000
0.00246 | 0.00132 | 0.000599 | 2.67e-05 | – | – | – | – | – | C[C@H](O)CCOc1ccc2ccc(=O)oc2c1 | –
– | – | – | – | 2600000 | 4 | 0.0078 | 390 | 150 | CC(=O)CCOc1ccc2ccc(=O)oc2c1 | –
0.00014 | 6.61e-06 | 3.31e-06 | 0.000773 | – | – | – | – | – | C[C@@H](O)CCOc1ccc2ccc(=O)oc2c1 | –
